Reference: patent publication US11384114B2, “Polymorphic forms of an oxysterol and methods of making them” (Warsaw Orthopedic, Inc., priority 2016, dated 2022)
“And” between values parts separate entries of the source, which are not always exact repeats. Equal entries are not always repeated.

Tests used:
Type in all cases: physicochemical
DSC/TGA water loss = assay: DSC/TGA water loss
Protocol: Differential scanning calorimetry (DSC) and thermo-gravimetric analysis (TGA) were also collected for some of the OXY133 polymorphs. The equipment utilized to collect the DSC/TGA data was a Mettler Toledo DSC 2 equipped with an aluminum 40 μL crimped pan with a pin hole and the ramp rate was 10° C./min. DSC/TGA thermograms identifying several OXY133 polymorphs are illustrated in FIGS. 20-25.

[1] = Crystal form stability on vacuum oven drying; conditions: for Crystal Form (XRPD): solid after drying at 20, 35 or 50 C, solvent system differs per item
Protocol: 2.0 g anhydrous OXY133 was added to 10 mL isopropanol in a 100 mL polyblock reactor. The mixture was heated to 30° C. and then stirred at 30° C. for 45 minutes until the solids were dissolved completely. Acceptable heating temperatures ranged from 25° C. to 35° C. A polish filtration step can be added after dissolving the anhydrous OXY133. The mixture of anhydrous OXY133 and isopropanol was then cooled to 5° C. 20 mL of water was then added to the cooled mixture over 120 minutes at 5° C., resulting in the formation of a precipitate approximately one third of the way through the addition of water. The water addition can also be done in temperature ranges from about 0° C. to about 20° C. with no significant effect on the crystal structure. The resulting mixture of OXY133, isopropanol and water was then stirred at 5° C. for 18 hours. However, it is recommended that the resulting mixture could be mixed for at least 2 hours at 5° C. after the water addition was complete to ensure that all solids were precipitated from the solution. A white solid was collected by rapidly filtering the mixture and then washing the solid with 2.0 mL of an isopropanol:water mixture in a ratio of 1:2 v/v. The filtered and washed solids were then dried in a vacuum oven at 20° C. Acceptable temperatures for drying can range from about 20° C. to about 30° C.

[2] = Karl-Fisher (KF) water determination of isolated solid; conditions: for KF (water content determined by Karl Fischer water determination method): OXY133 polymorph sample, processing point and temperature differ per item of Table 15; for KF (Wt %) water content: solid isolated from acetone/water slurry at 0-25° C.
Description: Further, Table 15 below is a list of OXY133 polymorphs Forms A, B, C, D, E, F, G, H and I identified by a high performance liquid chromatography (HPLC) followed by charged aerosol detector (CAD) method. Table 15 also lists the starting products, the solvent system including solvent and anti-solvent, the temperature at which a polymorph was formed, the water content of the polymorph as determined by the Karl-Fisher (KF) method of water determination, and where available, the yield and purity of the resulting polymorph.

[3] = Stability of the crystal form on stirring in the acetone/water solvent system; conditions: slurry stirred in acetone/water (Form C at about 20° C.; Form F at about 20° C. or about 5° C.)
[4] = isolated solid, lot 2891-28-1, prepared from anhydrous OXY133 in isopropanol/water at 5° C. (Example 6)

Row | SMILES | Crystal Form (XRPD) [1] | KF (water content determined by Karl Fischer water determination method) [2] [%] | KF (Wt %) water content [2] [Wt %] | stability of crystal form in acetone/water solvent system [3] | other results
1 | CCCCCC[C@](C)(O)[C@H]1CC[C@H]2[C@@H]3C[C@H](O)[C@H]4C[C@@H](O)CC[C@]4(C)[C@H]3CC[C@@]21C.O [Form A, (3S,5S,6S,8R,9S,10R,13S,14S,17S)-17-((S)-2-hydroxyoctan-2-yl)-10,13-dimethylhexadecahydro-1H-cyclopenta[a]phenanthrene-3,6-diol, monohydrate] |  |  |  |  | DSC/TGA (DSC/TGA water loss; [4]): 4.76%; water loss (DSC/TGA) (DSC/TGA water loss; ramp rate 10° C./min, listed as OXY133 monohydrate, monohydrate): 4.57% and 4.00%; crystal form change on drying ([1]; drying at temperatures above about 20° C. to about 30° C.): slow conversion of OXY133 monohydrate to a different, unknown crystal form; KF [2, 4]: 4.07%
2 | CCCCCC[C@](C)(O)[C@H]1CC[C@H]2[C@@H]3C[C@H](O)[C@H]4C[C@@H](O)CC[C@]4(C)[C@H]3CC[C@@]21C [Form 2891-9-3] | Form A | 3.83 | 3.83 |  | 
3 | CCCCCC[C@](C)(O)[C@H]1CC[C@H]2[C@@H]3C[C@H](O)[C@H]4C[C@@H](O)CC[C@]4(C)[C@H]3CC[C@@]21C [Form F] |  |  |  | somewhat stable | 
4 | CCCCCC[C@](C)(O)[C@H]1CC[C@H]2[C@@H]3C[C@H](O)[C@H]4C[C@@H](O)CC[C@]4(C)[C@H]3CC[C@@]21C [Form C] |  |  |  | fairly stable | 
5 | CCCCCC[C@](C)(O)[C@H]1CC[C@H]2[C@@H]3C[C@H](O)[C@H]4C[C@@H](O)CC[C@]4(C)[C@H]3CC[C@@]21C [Form 2891-10-3] | Form A | 4.02 | 4.02 |  | 
6 | CCCCCC[C@](C)(O)[C@H]1CC[C@H]2[C@@H]3C[C@H](O)[C@H]4C[C@@H](O)CC[C@]4(C)[C@H]3CC[C@@]21C [Form 2891-8-3] | Form A | 3.25 | 3.25 |  | 
